In PMC5571359, “Screening the Medicines for Malaria Venture Pathogen Box across Multiple Pathogens Reclassifies Starting Points for Open-Source Drug Discovery” (Antimicrobial Agents and Chemotherapy, 2017):
Read-outs that look alike come from different tables or passages of the source.

Tests used:
[1] = system: T. b. brucei 427 bloodstream trypanosomes; test: T. b. brucei resazurin viability assay; type: cell-based, Trypanosoma brucei brucei; details: for IC50: Trypanosoma brucei
[2] = system: Candida albicans biofilm formation; parameters: method as in PMID 27795383; details: cited from earlier work
HEK293 cells = test: HEK293 resazurin cell cytotoxicity assay; details: Homo sapiens, HEK293, read-out: HEK % Inhibition 20uM/IC50 Discovery Biology (IA)
[3] = system: L. donovani MHOM/IN/80/DD8 intracellular amastigotes; test: Leishmania donovani intracellular amastigote assay in THP-1 cells; type: cell-based; details: Leishmania donovani
[4] = system: Plasmodium falciparum 3D7 asexual blood stage
HepG2 = details: ref Pbox supporting information; cited from earlier work
[5] = system: NF54-pfs16-LUC-GFP stage IV gametocytes; test: Plasmodium falciparum late stage gametocyte (LSG) image-based assay; type: cell-based; details: Plasmodium falciparum
3T3 host cells = test: T. cruzi assay, activity against 3T3 host cells; type: cell-based; details: reference compound set; IA = inactive at 16.4 μM
Procedure, shortened: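 3T3 cells were seeded on collagen-coated plates, incubated 24 h at 37 °C, infected with T. cruzi at MOI 5:1, and washed free of extracellular parasites after a further 24 h. Following 48 h compound exposure, cells were fixed, stained with Hoechst 33342 and HCS CellMask Green, and imaged by high-content analysis.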

in vitro = details: human
[6] = system: Plasmodium falciparum 3D7 asexual blood stage; test: microbe, parasite or virus in culture; details: 3D7, read-out: IC50 P. falciparum 3D7 ABS
[7] = system: T. cruzi intracellular amastigotes; test: Intracellular anti-Trypanosoma cruzi image-based assay (amastigotes); type: cell-based; details: Trypanosoma cruzi; reference compound set; IA = inactive at 16.4 μM; read-out: IC50 T. cruzi intracellular amastigotes

| Structure (SMILES) | selectivity index (SI) T. brucei brucei versus HEK293 ([1]; HEK293) | selectivity index (SI) T. brucei brucei versus HEPG2 ([1]; HEPG2 (PBox data)) | IC50 ([1]; PBox compounds, read-out: IC50 T. brucei brucei (Discovery Biology)) | activity against Candida albicans biofilm formation [2] | IC50 (HEK293 cells) | IC50 ([3]; THP-1, intracellular amastigotes, values marked *, read-out: L, donovani Discovery Biology IC50 µM) | activity in the Discovery Biology ABS assay [4] | HepG2 PBox CC20 μMc (HepG2) | IC50 ([5]; NF54, read-out: Antiplasmodial IC50 (GAM / LSG), PBox compounds, stage IV gametocytes, single determination) | IC50 (3T3 host cells) | IC50 at 72 h (in vitro) | IC50 ([1]; reference compound set, IA = inactive at 20 μM, read-out: IC50 T. brucei brucei trypomastigotes) | IC50 ([3]; THP-1, read-out: IC50 L. donovani n = 1, reference compound set, first test, IA = inactive at 20 μM) | IC50 ([3]; THP-1, read-out: IC50 L. donovani n = 2, reference compound set, second test, IA = inactive at 20 μM) | IC50 [6] | IC50 [7] | inhibition at 20 µM ([5]; NF54, read-out: percent inhibition at the top screening dose, P. falciparum NF54 LSG) |
| --- | --- | --- | --- | --- | --- | --- | --- | --- | --- | --- | --- | --- | --- | --- | --- | --- | --- |
| Cc1[nH]c2ccccc2c1C(c1cccs1)N1CCN(C)CC1 (centres unmarked) [MMV688768] | > 13 | > 6 | 1.5 µM | inhibitory activity | > 20 µM | 5.4 µM | not ABS activity | 8.5 µM | 4.7 µM | – | – | – | – | – | – | – | – |
| CO[C@H]1/C=C/O[C@@]2(C)Oc3c(C)c(O)c4c(O)c(c(/C=N/N5CCN(C)CC5)c(O)c4c3C2=O)NC(=O)/C(C)=C\C=C\[C@H](C)[C@H](O)[C@@H](C)[C@@H](O)[C@@H](C)[C@H](OC(C)=O)[C@@H]1C [Rifampin, reference compound] | – | – | – | – | – | – | – | – | – | > 16.4 µM | > 20 µM | > 20 µM | > 20 µM | > 20 µM | 2.23 µM | > 16.4 µM | 78% |
